Results on 19 compounds are retold here after US20260297042A1, “BIARYLAMIDE DERIVATIVES AND THEIR USE AS PKMYT1 INHIBITORS” (CANCER RESEARCH TECHNOLOGY LIMITED, priority 2023, published 2026).

The target in assay [1] is T1, Human PKMYT1 (Homo sapiens, UniProt Q99640).
T1 construct: Human PKMYT1 75-362 was cloned as a TEV cleavable 6xHis fusion; 6xHis (TEV cleavable) (cleaved yes); made in house; host or cells: bacterial cells
T1 sequence (Q99640 75-362): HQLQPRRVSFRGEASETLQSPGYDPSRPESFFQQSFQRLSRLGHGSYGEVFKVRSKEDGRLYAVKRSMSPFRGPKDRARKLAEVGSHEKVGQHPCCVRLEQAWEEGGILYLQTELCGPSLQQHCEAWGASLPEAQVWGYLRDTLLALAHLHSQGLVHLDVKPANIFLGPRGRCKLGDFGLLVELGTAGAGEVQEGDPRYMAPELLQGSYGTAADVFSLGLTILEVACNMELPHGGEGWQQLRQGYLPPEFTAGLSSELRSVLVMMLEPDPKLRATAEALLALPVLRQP
Briefly: PKMYT1 biochemical ADP-Glo enzymatic assay. As to conditions: ADP-Glo. In a few lines:
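Measures inhibition of PKMYT1 autonomous ATP hydrolysis: bacterially expressed human enzyme (75-362, tag cleaved) at 15 nM with 500 µM ATP for 60 min at 26 °C, then ADP-Glo Max detection. IC50s accepted only when replicates agreed within 3-fold and curve r2 exceeded 0.9.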

The target in assay [2] is T2, WEE1 (Homo sapiens, UniProt P30291).
T2 construct: purchased Thermo Fisher PR7373A
T2 sequence (P30291 whole entry): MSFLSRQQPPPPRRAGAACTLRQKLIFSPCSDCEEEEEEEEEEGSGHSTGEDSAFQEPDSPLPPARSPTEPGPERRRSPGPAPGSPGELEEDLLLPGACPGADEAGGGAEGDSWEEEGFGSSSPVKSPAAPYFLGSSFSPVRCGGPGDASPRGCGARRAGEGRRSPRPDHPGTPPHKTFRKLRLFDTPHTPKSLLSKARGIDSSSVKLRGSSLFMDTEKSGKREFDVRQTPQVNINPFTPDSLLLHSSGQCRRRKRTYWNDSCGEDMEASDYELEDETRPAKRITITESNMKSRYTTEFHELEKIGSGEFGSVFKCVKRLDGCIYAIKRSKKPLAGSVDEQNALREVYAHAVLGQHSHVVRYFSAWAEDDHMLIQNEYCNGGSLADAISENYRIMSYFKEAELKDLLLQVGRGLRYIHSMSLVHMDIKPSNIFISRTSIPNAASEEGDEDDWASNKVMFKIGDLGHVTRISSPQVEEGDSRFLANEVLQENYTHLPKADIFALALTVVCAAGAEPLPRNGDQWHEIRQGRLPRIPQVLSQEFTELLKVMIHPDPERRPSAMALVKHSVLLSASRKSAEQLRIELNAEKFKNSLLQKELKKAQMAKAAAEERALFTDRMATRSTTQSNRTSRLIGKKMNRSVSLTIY
The experiment in a line: Selectivity versus WEE1 assay (ADP-Glo enzymatic assay). The assay is classed as biochemical. As to conditions: for IC50: ADP-Glo; for PKMYT1 vs. WEE1 selectivity: fold difference in selectivity for PKMYT1 over WEE1. In a few lines: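 Same format as the PKMYT1 assay: WEE1 at 15 nM final with 30 µM ATP, 60 min at 26° C, ADP-Glo luminescence detection, IC50 by dose-response fitting.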

Where [3] appears, read: 15 nM PKMYT1 kinase domain, 500 µM ATP, 60 minutes at 26° C., banded.
[4] abbreviates: 15 nM WEE1, 60 minutes at 26° C., banded.
Where [5] appears, read: banded, ">N" = at least in this band but could be higher.
The mark [6] stands for this setting: PKMYT1 kinase domain 15 nM, banded values.

The term IC50 denotes the concentration that gives 50% inhibition. Low values mean higher potency, high ones lower potency.

Turning to `Cc1ccc(O)c(C)c1NC(=O)c1cnc(Nc2nc3c(s2)COCC3)s1` [BAA-029, 2-(6,7-dihydro-4H-pyrano[4,3-d]thiazol-2-ylamino)-N-(3-hydroxy-2,6-dimethyl-phenyl)thiazole-5-carboxamide], the 50% inhibitory concentration (IC50) in assay [1] (setting [3]) was 50 to 1000 nM; in assay [2] (setting [4]), above 11000 nM. For the same compound, in assay [2] (setting [5]), the “PKMYT1 vs. WEE1 selectivity” value is reported as “X (100-<1000 fold)”.
With `Cc1ccc(O)c(C)c1NC(=O)c1cnc(Nc2cc3ccc(Cl)cn3n2)s1` [BAA-051, 2-[(6-chloropyrazolo[1,5-a]pyridin-2-yl)amino]-N-(3-hydroxy-2,6-dimethyl-phenyl)thiazole-5-carboxamide], the IC50 in assay [1] (setting [3]) was 50 to 1000 nM; in assay [2] (setting [4]), above 11000 nM. In assay [2] (setting [5]), the “PKMYT1 vs. WEE1 selectivity” value is “>X (100-<1000 fold)”.
Regarding `Cc1nc(Cl)cc(Nc2ncc(C(=O)Nc3c(C)ccc(O)c3C)s2)n1` [BAA-436, 2-((6-chloro-2-methylpyrimidin-4-yl)amino)-N-(3-hydroxy-2,6-dimethylphenyl)thiazole-5-carboxamide], the IC50 in assay [1] (setting [6]) was below 50 nM; in assay [2] (WEE1 15 nM, banded values), above 11000 nM. Besides, the “PKMYT1 vs. WEE1 selectivity” value in assay [2] (banded) is listed as “Z (>5000 fold)”.
As for `Cc1ccc(O)c(C)c1NC(=O)c1cnc(Nc2ccn(CC(F)(F)F)n2)s1` [BAA-019, N-(3-hydroxy-2,6-dimethyl-phenyl)-2-[[1-(2,2,2-trifluoroethyl)pyrazol-3-yl]amino]thiazole-5-carboxamide], the figures for the IC50 in assay [1] (setting [3]) and in assay [2] (setting [4]) were 50 to 1000 nM and above 11000 nM, respectively. Also, in assay [2] (setting [5]), the “PKMYT1 vs. WEE1 selectivity” value was “X (100-<1000 fold)”.
In the case of `CCCn1ccc(Nc2ncc(C(=O)Nc3c(C)ccc(O)c3C)s2)n1` [BAA-006, N-(3-hydroxy-2,6-dimethyl-phenyl)-2-[(1-propylpyrazol-3-yl)amino]thiazole-5-carboxamide], the IC50 in assay [1] (setting [3]) was 50 to 1000 nM; in assay [2] (setting [4]) it was above 11000 nM. For the same compound, the “PKMYT1 vs. WEE1 selectivity” value in assay [2] (setting [5]) is “X (100-<1000 fold)”.
`Cc1ccc(O)c(C)c1NC(=O)c1cnc(Nc2ncc(C(F)(F)F)o2)s1` [BAA-437, N-(3-hydroxy-2,6-dimethylphenyl)-2-((5-(trifluoromethyl)oxazol-2-yl)amino)thiazole-5-carboxamide]: the half-inhibitory concentration (IC50) in assay [1] (setting [6]) was 1000 to 11000 nM; in assay [2] (WEE1 15 nM, banded values), above 11000 nM. For the same compound, in assay [2] (banded), the “PKMYT1 vs. WEE1 selectivity” value is recorded as “W (10-<100 fold)”.
Regarding `Cc1ccc(O)c(C)c1NC(=O)c1cnc(Nc2ccn(CC(=O)N3CCN(CC(F)(F)F)CC3)n2)s1` [BAA-184], the results for the IC50 in assay [1] (setting [3]) and in assay [2] (setting [4]) were 50 to 1000 nM and above 11000 nM, respectively. For the same compound, in assay [2] (setting [5]), the “PKMYT1 vs. WEE1 selectivity” value is “>X (100-<1000 fold)”.
Consider `Cc1ccc(O)c(C)c1NC(=O)c1cnc(Nc2nc3ccccc3s2)s1` [BAA-442, 2-(benzo[d]thiazol-2-ylamino)-N-(3-hydroxy-2,6-dimethylphenyl)thiazole-5-carboxamide], for which the 50% inhibitory concentration (IC50) in assay [1] (setting [6]) was 50 to 1000 nM; in assay [2] (WEE1 15 nM, banded values), above 11000 nM. In assay [2] (banded), the “PKMYT1 vs. WEE1 selectivity” value is listed as “X (100-<1000 fold)”.
`CCNC(=O)Cn1nc(Nc2ncc(C(=O)Nc3c(C)ccc(O)c3C)s2)cc1C` [BAA-202, 2-[[1-[2-(ethylamino)-2-oxo-ethyl]-5-methyl-pyrazol-3-yl]amino]-N-(3-hydroxy-2,6-dimethyl-phenyl)thiazole-5-carboxamide]: the IC50 in assay [1] (setting [3]) was below 50 nM; in assay [2] (setting [4]), above 11000 nM. Also, in assay [2] (setting [5]), the “PKMYT1 vs. WEE1 selectivity” value was “X (100-<1000 fold)”.
The corresponding values for `Cc1ccc(O)c(C)c1NC(=O)c1cnc(Nc2nn(-c3ccc(C(F)(F)F)nc3)cc2Cl)s1` [BAA-382, 2-((4-chloro-1-(6-(trifluoromethyl)pyridin-3-yl)-1H-pyrazol-3-yl)amino)-N-(3-hydroxy-2,6-dimethylphenyl) thiazole-5-carboxamide] are 50 to 1000 nM, above 11000 nM and “X (100-<1000 fold)”.
With `Cc1ccc(O)c(C)c1NC(=O)c1cnc(Nc2ccn(CC(=O)N3CCNCC3)n2)s1` [BAA-222, N-(3-hydroxy-2,6-dimethylphenyl)-2-((1-(2-oxo-2-(piperazin-1-yl)ethyl)-1H-pyrazol-3-yl)amino)thiazole-5-carboxamide], the half-maximal inhibitory concentration (IC50) is below 50 nM in assay [1] (setting [3]) and above 11000 nM in assay [2] (setting [4]). Moreover, the “PKMYT1 vs. WEE1 selectivity” value in assay [2] (setting [5]) is “X (100-<1000 fold)”.
On to `Cc1ccc(O)c(C)c1NC(=O)c1cnc(Nc2ccn([C@@H]3CCN(C(=O)NC4CC4)C3)n2)s1` [BAA-110, 2-[[1-[(3R)-1-(Cyclopropylcarbamoyl)pyrrolidin-3-yl]pyrazol-3-yl]amino]-N-(3-hydroxy-2.6-dimethyl-phenyl)thiazole-5-carboxamide], for which the half-inhibitory concentration (IC50) in assay [1] (setting [3]) was 50 to 1000 nM; in assay [2] (setting [4]), above 11000 nM. The “PKMYT1 vs. WEE1 selectivity” value in assay [2] (setting [5]) is on record as “>X (100-<1000 fold)”.
Turning to `Cc1ccc(O)c(C)c1NC(=O)c1cnc(Nc2ccn(CC(=O)N3CCCN(C)CC3)n2)s1` [BAA-171], the IC50 in assay [1] (setting [3]) is below 50 nM; in assay [2] (setting [4]), above 11000 nM. Also, the “PKMYT1 vs. WEE1 selectivity” value in assay [2] (setting [5]) is “X (100-<1000 fold)”.
In the case of `Cc1cncc(Nc2ncc(C(=O)Nc3c(C)ccc(O)c3C)s2)n1` [BAA-570, N-(3-hydroxy-2,6-dimethylphenyl)-2-((6-methylpyrazin-2-yl)amino)thiazole-5-carboxamide], the IC50 was below 50 nM in assay [1] (setting [6]) and above 11000 nM in assay [2] (WEE1 15 nM, banded values). Besides, the “PKMYT1 vs. WEE1 selectivity” value in assay [2] (banded) is on record as “X (100-<1000 fold)”.
With `Cc1ccc(O)c(C)c1NC(=O)c1cnc(Nc2ccn(CC(=O)N(C)C)n2)s1` [BAA-117, 2-[[1-[2-(Dimethylamino)-2-oxo-ethyl]pyrazol-3-yl]amino]-N-(3-hydroxy-2,6-dimethyl-phenyl)thiazole-5-carboxamide], the IC50 in assay [1] (setting [3]) is below 50 nM; in assay [2] (setting [4]), above 11000 nM. In assay [2] (setting [5]), the “PKMYT1 vs. WEE1 selectivity” value is “Y (1000-5000 fold)”.
The matching figures for `CCCN1CC[C@@H](n2ccc(Nc3ncc(C(=O)Nc4c(C)ccc(O)c4C)s3)n2)C1` [BAA-114, N-(3-Hydroxy-2,6-dimethyl-phenyl)-2-[[1-[(3R)-1-propylpyrrolidin-3-yl]pyrazol-3-yl]amino]thiazole-5-carboxamide]: 50 to 1000 nM, above 11000 nM and “>X (100-<1000 fold)”.
Turning to `CCN(CC)C(=O)Cn1nc(Nc2ncc(C(=O)Nc3c(C)ccc(O)c3C)s2)cc1C` [BAA-204, 2-[[1-[2-(diethylamino)-2-oxo-ethyl]-5-methyl-pyrazol-3-yl]amino]-N-(3-hydroxy-2,6-dimethyl-phenyl)thiazole-5-carboxamide], the concentration for half-maximal inhibition (IC50) in assay [1] (setting [3]) was below 50 nM; in assay [2] (setting [4]), above 11000 nM. Also, the “PKMYT1 vs. WEE1 selectivity” value in assay [2] (setting [5]) is listed as “Z (>5000 fold)”.
The matching figures for `Cc1ccc(O)c(C)c1NC(=O)c1cnc(Nc2cc(C(=O)OC(C)(C)C)n(C)n2)s1` [BAA-253, tert-butyl 3-((5-((3-hydroxy-2,6-dimethylphenyl)carbamoyl)thiazol-2-yl)amino)-1-methyl-1H-pyrazole-5-carboxylate]: 50 to 1000 nM, above 11000 nM and “X (100-<1000 fold)”.
The matching figures for `COc1ccc(CC(=O)N2CCC(CNc3ncc(C(=O)Nc4c(C)ccc(O)c4C)s3)CC2)nc1` [BAA-100, N-(3-Hydroxy-2,6-dimethyl-phenyl)-2-[[1-[2-(5-methoxy-2-pyridyl)acetyl]-4-piperidyl]methylamino]thiazole-5-carboxamide]: 50 to 1000 nM, above 11000 nM and “>X (100-<1000 fold)”.
